The text below walks through data of US9873702B2, “Heterocyclic compounds as biogenic amine transport modulators” (Southern Research Institute, priority 2014, dated 2018).

Data set [1] deals with dopamine transporter (DAT) (Rattus norvegicus, UniProt P23977). As to the kind of experiment: Dopamine reuptake ([^3H]dopamine uptake) inhibition in rat brain synaptosomes. To be noted: for IC50: DA Uptake EC50 (nM ± SD), rat caudate synaptosomes, 5 nM [^3H]dopamine, 15 min, 25° C., three experiments pooled; for Emax: read-out: DA Uptake Emax (% I ± SD).

Bounds are passed on as bounds.

Sequence of dopamine transporter (DAT) (P23977 whole entry): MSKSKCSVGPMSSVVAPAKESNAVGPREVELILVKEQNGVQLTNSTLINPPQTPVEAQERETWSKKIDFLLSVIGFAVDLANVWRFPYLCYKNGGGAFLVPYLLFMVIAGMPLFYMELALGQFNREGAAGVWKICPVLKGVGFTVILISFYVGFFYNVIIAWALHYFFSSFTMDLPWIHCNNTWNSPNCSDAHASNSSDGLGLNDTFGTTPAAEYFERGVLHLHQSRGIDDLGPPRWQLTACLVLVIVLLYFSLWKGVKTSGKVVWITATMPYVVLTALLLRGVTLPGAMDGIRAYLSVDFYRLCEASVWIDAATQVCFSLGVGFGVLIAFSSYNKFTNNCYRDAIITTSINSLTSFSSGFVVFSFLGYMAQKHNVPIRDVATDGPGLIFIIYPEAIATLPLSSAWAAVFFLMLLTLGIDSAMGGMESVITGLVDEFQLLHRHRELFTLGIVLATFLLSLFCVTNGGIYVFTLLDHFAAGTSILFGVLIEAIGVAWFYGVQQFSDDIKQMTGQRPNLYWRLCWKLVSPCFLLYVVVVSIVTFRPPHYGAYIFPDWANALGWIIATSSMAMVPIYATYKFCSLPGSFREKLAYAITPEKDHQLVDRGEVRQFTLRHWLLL

Take `c1ccc(C(CNc2nc(-c3cccs3)nc3ccccc23)c2ccccc2)cc1` [compound 6, N-(2,2-Diphenylethyl)-2-(thiophen-2-yl)quinazolin-4-amine]: the melting point was in the range of 148 to 152 °C. Moreover, in data set [1], the IC50 is 575 ± 51 nM and the Emax was 78 ± 1%.
In the case of `c1ccc(C(CCNc2nc(-c3cccs3)nc3ccccc23)c2ccccc2)cc1` [compound 7, N-(3,3-Diphenylpropyl)-2-(thiophen-2-yl)quinazolin-4-amine], the melting point is 152 to 155 °C. In addition, in data set [1], half-maximal inhibition (IC50) required 910 nM and the Emax is 100%.
For `c1ccc(C(CCNc2nc(N3CCCCC3)nc3ccccc23)c2ccccc2)cc1` [compound 9, N-(3,3-Diphenylpropyl)-2-(piperidin-1-yl)quinazolin-4-amine], the melting point lay within 160 to 164 °C. In addition, in data set [1], the IC50 was determined as 140 nM and the maximal response (Emax) turned out to be 100%.
`c1ccc(C(CNc2nc(-c3ccsc3)nc3ccccc23)c2ccccc2)cc1` [compound 10, N-(2,2-Diphenylethyl)-2-(thiophen-3-yl)quinazolin-4-amine] displayed a melting point of 152 to 155 °C. In data set [1], half-maximal inhibition (IC50) required 250 nM and the Emax is under 100%.
On the same counts, the results for `c1ccc(C(Nc2nc(-c3ccsc3)nc3ccccc23)c2ccccc2)cc1` [compound 11, N-Benzhydryl-2-(thiophen-3-yl)quinazolin-4-amine] are 152 to 155 °C, 770 nM and 100%.
Compound `c1ccc(C(Nc2nc(-c3cncnc3)nc3ccccc23)c2ccccc2)cc1` [compound 14, N-Benzhydryl-2-(pyrimidin-5-yl)quinazolin-4-amine] had a melting point of 210 °C. In data set [1], the midpoint of inhibition, the IC50, lay at 234 ± 36 nM and the Emax stood at 74 ± 2%.
The like results for `c1ccc(C(CNc2nc(-c3cncnc3)nc3ccccc23)c2ccccc2)cc1` [compound 18, N-(2,2-Diphenylethyl)-2-(Pyrimidin-5-yl)Quinazolin-4-Amine] were, in that order, 213 to 215 °C, 160 nM and under 100%.
With `c1ccc(C(CCNc2nc(-c3cncnc3)nc3ccccc23)c2ccccc2)cc1` [compound 22, N-(3,3-Diphenylpropyl)-2-(Pyrimidin-5-yl)Quinazolin-4-Amine], the melting point was 154 °C. In data set [1], the IC50 was 750 nM and the Emax came to 100%.
The like results for `COc1cc2nc(-c3cnc(N(C)C)nc3)nc(NCC(c3ccccc3)c3ccccc3)c2cc1OC` [compound 23, 2-(2-(Dimethylamino)Pyrimidin-5-yl)-N-(2,2-Diphenylethyl)-6,7-Dimethoxyquinazolin-4-Amine] were, in that order, 92 °C, 720 nM and 100%.
On the same counts, the results for `COc1cc2nc(-c3ccc4[nH]ccc4c3)nc(NCC(c3ccccc3)c3ccccc3)c2cc1OC` [compound 24, N-(2,2-Diphenylethyl)-2-(1H-indol-5-yl)-6,7-Dimethoxyquinazolin-4-Amine] are 117 °C, 46 nM and 100%.
Compound `COc1cc2nc(-c3cncnc3)nc(NCC(c3ccccc3)c3ccccc3)c2cc1OC` [compound 25, N-(2,2-Diphenylethyl)-6,7-Dimethoxy-2-(Pyrimidin-5-yl)Quinazolin-4-Amine] registered a melting point of 93 °C. For the same compound, in data set [1], the IC50 stood at 1090 nM and the Emax was under 100%.
`COc1cc2nc(-c3cccs3)nc(NCC(c3ccccc3)c3ccccc3)c2cc1OC` [compound 26, N-(2,2-Diphenylethyl)-6,7-Dimethoxy-2-(Thiophen-2-yl)Quinazolin-4-Amine] showed a melting point of 94 °C. In data set [1], 560 nM corresponded to half-maximal inhibition (IC50) and the Emax amounted to 100%.
On the same counts, the results for `COc1cc2nc(-c3ccsc3)nc(NCC(c3ccccc3)c3ccccc3)c2cc1OC` [compound 27, N-(2,2-Diphenylethyl)-6,7-Dimethoxy-2-(Thiophen-3-yl)Quinazolin-4-Amine] are 92 °C, 580 nM and 100%.
On the same counts, the results for `COc1cc2nc(-c3cccnc3)nc(NCC(c3ccccc3)c3ccccc3)c2cc1OC` [compound 28, N-(2,2-Diphenylethyl)-6,7-Dimethoxy-2-(Pyridin-3-yl)Quinazolin-4-Amine] are 89 °C, 620 nM and under 100%.
In the case of `COc1ncc(-c2nc(NCC(c3ccccc3)c3ccccc3)c3ccccc3n2)cn1` [compound 29, N-(2,2-Diphenylethyl)-2-(2-Methoxypyrimidin-5-yl)Quinazolin-4-Amine], the melting point worked out at 67 °C. Besides, in data set [1], it took 36 ± 2 nM to reach half-maximal inhibition (IC50) and the Emax was determined as 71 ± 1%.
Compound `c1ccc(C(CNc2nc(-c3ccc4cc[nH]c4c3)nc3ccccc23)c2ccccc2)cc1` [compound 31, N-(2,2-Diphenylethyl)-2-(1H-indol-6-yl)Quinazolin-4-Amine] showed a melting point of 102 °C. Moreover, in data set [1], it took 89 ± 23 nM to reach half-maximal inhibition (IC50) and the Emax was found to be 81 ± 4%.
The like results for `c1ccc(C(CNc2nc(-c3cccc4[nH]ccc34)nc3ccccc23)c2ccccc2)cc1` [compound 32, N-(2,2-Diphenylethyl)-2-(1H-Indol-4-yl)Quinazolin-4-Amine] were, in that order, 100 °C, 189 ± 37 nM and 68 ± 3%.
In turn, `c1ccc(C(CNc2nc(-c3ccc4cn[nH]c4c3)nc3ccccc23)c2ccccc2)cc1` [compound 34, N-(2,2-Diphenylethyl)-2-(1H-Indazol-6-yl)Quinazolin-4-Amine] showed a melting point of 223 °C. In addition, in data set [1], inhibition was half-maximal at 123 ± 20 nM (IC50) and the Emax turned out to be 68 ± 2%.
In the case of `c1ccc(C(CNc2nc(-c3cccc4[nH]ncc34)nc3ccccc23)c2ccccc2)cc1` [compound 35, N-(2,2-Diphenylethyl)-2-(1H-Indazol-4-yl)Quinazolin-4-Amine], the melting point was 229 °C. In data set [1], the half-maximal inhibitory concentration (IC50) was found to be 475 ± 85 nM and the maximum response (Emax) worked out at 72 ± 3%.
`O=S(=O)(c1ccccc1)n1ccc2cc(-c3nc(NCC(c4ccccc4)c4ccccc4)c4ccccc4n3)ccc21` [compound 36, N-(2,2-Diphenylethyl)-2-(1-(Phenylsulfonyl)-1H-Indol-5-yl)Quinazolin-4-Amine] came in with a melting point of 203 °C.
Turning to `c1ccc(C(CNc2nc(-c3cnc(N4CCCC4)nc3)nc3ccccc23)c2ccccc2)cc1` [compound 37, N-(2,2-Diphenylethyl)-2-(2-(Pyrrolidin-1-yl)Pyrimidin-5-yl)Quinazolin-4-Amine], the melting point worked out at 208 °C. Moreover, in data set [1], 121 ± 27 nM corresponded to half-maximal inhibition (IC50) and the Emax came out at 66 ± 3%.
On the same counts, the results for `c1ccc(C(CNc2nc(-c3cnc(N4CCCCC4)nc3)nc3ccccc23)c2ccccc2)cc1` [compound 38, N-(2,2-Diphenylethyl)-2-(2-(Piperidin-1-yl)Pyrimidin-5-yl)Quinazolin-4-Amine] are 92 °C, 1420 nM and 100%.
Consider `c1ccc(C(CNc2nc(-c3ccncc3)nc3ccccc23)c2ccccc2)cc1` [compound 39, N-(2,2-Diphenylethyl)-2-(Pyridin-4-yl)Quinazolin-4-Amine], for which the melting point came out at 242 °C. Also, in data set [1], the midpoint of inhibition, the IC50, lay at 47 ± 6 nM and the Emax stood at 78 ± 2%.
`Clc1cccc(C(CNc2nc(-c3cccnc3)nc3ccccc23)c2ccccc2)n1` (stereo not shown) [compound 53, N-(2-(6-Chloropyridin-2-yl)-2-Phenylethyl)-2-(Pyridin-3-yl)Quinazolin-4-Amine] registered a melting point of 83 °C.
The same measure, in the same setting: under `CC(C)(C)OC(=O)n1cc(-c2nc(NCC(c3ccccc3)c3ccccc3)c3ccccc3n2)c2ccccc21` [compound 72, Tert-Butyl 3-(4-((2,2-Diphenylethyl)Amino)Quinazolin-2-yl)-1H-Indole-1-Carboxylate] stands 90 °C.
With `CC(C)(C)OC(=O)N1CCc2cc(-c3nc(NCC(c4ccccc4)c4ccccc4)c4ccccc4n3)ccc21` [compound 74, Tert-Butyl 5-(4-((2,2-Diphenylethyl)Amino)Quinazolin-2-yl)Indoline-1-Carboxylate], the melting point turned out to be 127 °C.
For `Nc1ncc(-c2nc(NCC(c3ccccc3)c3ncccn3)c3ccccc3n2)cn1` (stereo not shown) [compound 104, 2-(2-Aminopyrimidin-5-yl)-N-(2Phenyl-2-(Pyrimidin-2-yl)Ethyl)Quinazolin-4-Amine], the melting point was 211 °C.
`CN(C)Cc1cnc2ccc(-c3nc(NCC(c4ccccc4)c4ccccc4)c4ccccc4n3)cn12` [compound 112, 2-(3-((Dimethylamino)methyl)Imidazo[1,2-A]pyridin-6-yl)-N-(2,2-Diphenylethyl)Quinazolin-4-Amine] registered a melting point of 240 °C.
As to `c1ccc(C(CNc2nc(-c3ccc4nccn4c3)nc3ccccc23)N2CCOCC2)cc1` (stereo not shown) [compound 122, 2-(Imidazo[1,2-A]Pyridin-6-yl)-N-(2-Morpholino-2-Phenylethyl)Quinazolin-4-Amine], the melting point was over 250 °C.
Still for that read-out and setting: under `CN1CCN(C(CNc2nc(-c3ccc4nccn4c3)nc3ccccc23)c2ccccc2)CC1` (stereo not shown) [compound 126, 2-(Imidazo[1,2-A]Pyridin-6-yl)-N-(2-(4-Methylpiperazin-1-yl)-2-Phenylethyl)Quinazolin-4-Amine] stands 225 to 227 °C.
Regarding `O=C(N[C@H](CNc1nc(-c2ccc3nccn3c2)nc2ccccc12)c1ccccc1)c1ccccc1` [compound 150, (S)—N-(2-((2-(Imidazo[1,2-A]Pyridin-6-yl)Quinazolin-4-yl)Amino)-1-Phenylethyl)Benzamide], the melting point was 97 to 99 °C.
`c1ccc(C(CNc2nc(-c3ccc4nccn4c3)nc3ccccc23)c2ccc[nH]2)nc1` (stereo not shown) [compound 159, 2-(Imidazo[1,2-A]pyridin-6-yl)-N-(2-(Pyridin-2-yl)-2-(1H-Pyrrol-2-yl)Ethyl)Quinazolin-4-Amine] gave a melting point of 235 to 237 °C.

One may read the IC50 as the concentration that inhibits the measured activity by half. Low readings indicate inhibition by little substance, high ones a need for much substance. One may read the Emax as the greatest response seen or fitted, relative to the assay's reference. By melting point is commonly meant the temperature, or range, at which the solid turns liquid.
